Test results published in ChEMBL document CHEMBL5465560, “Selectivity Literature for EUbOPEN Chemogenomic Library” (2024).
One block for each compound: values may come before it.

Assays:
[1] = biological target: Atypical kinase COQ8A, mitochondrial (Homo sapiens, UniProt Q8NI60); conditions: at 10 µM
[2] = biological target: Histone-lysine N-methyltransferase EZH2 (Homo sapiens) (UniProt Q15910); assay: Selectivity interaction (Transferase panel (protein, RNA, and DNA methyltransferases. and EP300 (acetyltransferase))) EUB0000270b EZH2
[3] = biological target: Serine/threonine-protein kinase Nek4 (Homo sapiens) (UniProt P51957); assay: Selectivity interaction (Kinase panel (Z-LYTE Assay)) EUB0001632a NEK4; conditions: at 10 µM
[4] = biological target: Hepatocyte growth factor-like protein (Homo sapiens) (UniProt P26927); conditions: at 10 µM
[5] = biological target: T1, Serine/threonine-protein kinase TAO3 (Homo sapiens) (UniProt Q9H2K8); assay: Selectivity interaction (Upstate Kinase Profiler service (Millipore)) EUB0000056c TAOK3; conditions: at 1 µM
T1 sequence (whole entry): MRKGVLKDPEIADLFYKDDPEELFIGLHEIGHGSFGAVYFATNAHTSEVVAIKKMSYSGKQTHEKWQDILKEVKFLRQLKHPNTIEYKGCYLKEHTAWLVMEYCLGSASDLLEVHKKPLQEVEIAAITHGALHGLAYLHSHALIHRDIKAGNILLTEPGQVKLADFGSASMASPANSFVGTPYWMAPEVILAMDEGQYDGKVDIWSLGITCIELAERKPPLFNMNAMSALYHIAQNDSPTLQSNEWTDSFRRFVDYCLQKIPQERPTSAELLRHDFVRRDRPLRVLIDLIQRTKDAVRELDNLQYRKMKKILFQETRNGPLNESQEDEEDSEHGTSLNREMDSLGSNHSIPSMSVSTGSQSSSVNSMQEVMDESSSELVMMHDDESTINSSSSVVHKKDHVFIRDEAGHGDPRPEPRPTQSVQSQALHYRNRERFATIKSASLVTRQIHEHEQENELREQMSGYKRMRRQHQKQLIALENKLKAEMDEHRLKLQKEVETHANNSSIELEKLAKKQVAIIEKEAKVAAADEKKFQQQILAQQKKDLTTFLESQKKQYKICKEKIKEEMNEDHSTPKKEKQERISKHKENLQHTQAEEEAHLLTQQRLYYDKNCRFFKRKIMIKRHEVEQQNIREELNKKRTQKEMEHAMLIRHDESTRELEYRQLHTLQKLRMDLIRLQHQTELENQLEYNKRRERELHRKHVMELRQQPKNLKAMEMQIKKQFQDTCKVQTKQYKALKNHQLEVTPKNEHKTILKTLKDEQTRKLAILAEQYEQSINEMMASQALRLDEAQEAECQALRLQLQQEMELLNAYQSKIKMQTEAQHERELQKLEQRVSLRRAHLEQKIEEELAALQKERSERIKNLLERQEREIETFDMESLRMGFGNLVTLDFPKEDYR

[6] = biological target: Ribosomal protein S6 kinase alpha-4 (Homo sapiens) (UniProt O75676); assay: Selectivity interaction (KinomeScan (DiscoverX)) EUB0000311b RPS6KA4; conditions: at 1 µM
[7] = biological target: AP2-associated protein kinase 1 (Homo sapiens, UniProt Q2M2I8); assay: Selectivity interaction (KinomeScan (DiscoverX)) EUB0000618a AAK1; conditions: at 10 µM
[8] = biological target: T2, Mitogen-activated protein kinase kinase kinase 5 (Homo sapiens) (UniProt Q99683); assay: Selectivity interaction (Kinase panel (KiNativ target engagement assay in Jurkat cells)) EUB0001635a MAP3K5; assay type: cell-based; conditions: Selectivity number of off-targets 0.0, Selectivity number of targets 233.0, Source Knowledge https://www.sciencedirect.com/science/article/pii/S2451945619300674?via%3Dihub, at 1 µM
T2 sequence (whole entry): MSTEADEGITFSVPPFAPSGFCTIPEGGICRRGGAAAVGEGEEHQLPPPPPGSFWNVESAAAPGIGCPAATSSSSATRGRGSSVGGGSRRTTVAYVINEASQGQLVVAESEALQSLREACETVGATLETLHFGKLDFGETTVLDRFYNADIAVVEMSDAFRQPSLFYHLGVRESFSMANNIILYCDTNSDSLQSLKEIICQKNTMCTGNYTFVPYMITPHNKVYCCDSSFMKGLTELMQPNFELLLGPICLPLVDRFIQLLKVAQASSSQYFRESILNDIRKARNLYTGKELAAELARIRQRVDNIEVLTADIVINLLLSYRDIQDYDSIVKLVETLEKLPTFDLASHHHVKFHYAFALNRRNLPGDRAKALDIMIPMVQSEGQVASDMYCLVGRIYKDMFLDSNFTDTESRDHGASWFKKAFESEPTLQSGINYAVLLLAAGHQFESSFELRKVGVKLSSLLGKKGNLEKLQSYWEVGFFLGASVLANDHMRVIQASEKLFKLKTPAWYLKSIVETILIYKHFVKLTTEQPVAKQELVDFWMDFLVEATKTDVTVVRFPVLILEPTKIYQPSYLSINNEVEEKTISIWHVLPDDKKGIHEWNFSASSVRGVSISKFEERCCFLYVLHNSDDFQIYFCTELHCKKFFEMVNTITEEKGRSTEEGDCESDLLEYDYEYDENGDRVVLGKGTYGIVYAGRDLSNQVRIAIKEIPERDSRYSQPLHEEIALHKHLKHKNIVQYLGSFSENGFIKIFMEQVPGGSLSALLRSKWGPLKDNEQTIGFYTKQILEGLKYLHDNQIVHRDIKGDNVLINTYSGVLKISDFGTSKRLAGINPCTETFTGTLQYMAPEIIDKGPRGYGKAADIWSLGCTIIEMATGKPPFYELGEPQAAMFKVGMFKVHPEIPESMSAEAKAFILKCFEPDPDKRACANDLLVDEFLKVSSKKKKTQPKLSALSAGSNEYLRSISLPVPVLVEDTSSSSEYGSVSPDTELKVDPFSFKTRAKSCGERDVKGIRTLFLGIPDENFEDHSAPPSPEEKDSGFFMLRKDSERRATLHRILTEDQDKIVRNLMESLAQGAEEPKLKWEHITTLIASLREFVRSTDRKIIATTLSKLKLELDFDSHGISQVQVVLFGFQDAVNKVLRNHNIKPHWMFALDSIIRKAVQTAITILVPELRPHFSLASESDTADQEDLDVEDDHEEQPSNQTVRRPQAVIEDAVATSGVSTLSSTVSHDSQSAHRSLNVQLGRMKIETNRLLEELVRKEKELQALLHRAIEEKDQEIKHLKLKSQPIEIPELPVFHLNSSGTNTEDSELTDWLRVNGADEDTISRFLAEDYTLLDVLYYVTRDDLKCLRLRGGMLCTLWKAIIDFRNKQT

Histone-lysine N-methyltransferase EZH2 (Homo sapiens), sequence (Q15910 whole entry, looked up): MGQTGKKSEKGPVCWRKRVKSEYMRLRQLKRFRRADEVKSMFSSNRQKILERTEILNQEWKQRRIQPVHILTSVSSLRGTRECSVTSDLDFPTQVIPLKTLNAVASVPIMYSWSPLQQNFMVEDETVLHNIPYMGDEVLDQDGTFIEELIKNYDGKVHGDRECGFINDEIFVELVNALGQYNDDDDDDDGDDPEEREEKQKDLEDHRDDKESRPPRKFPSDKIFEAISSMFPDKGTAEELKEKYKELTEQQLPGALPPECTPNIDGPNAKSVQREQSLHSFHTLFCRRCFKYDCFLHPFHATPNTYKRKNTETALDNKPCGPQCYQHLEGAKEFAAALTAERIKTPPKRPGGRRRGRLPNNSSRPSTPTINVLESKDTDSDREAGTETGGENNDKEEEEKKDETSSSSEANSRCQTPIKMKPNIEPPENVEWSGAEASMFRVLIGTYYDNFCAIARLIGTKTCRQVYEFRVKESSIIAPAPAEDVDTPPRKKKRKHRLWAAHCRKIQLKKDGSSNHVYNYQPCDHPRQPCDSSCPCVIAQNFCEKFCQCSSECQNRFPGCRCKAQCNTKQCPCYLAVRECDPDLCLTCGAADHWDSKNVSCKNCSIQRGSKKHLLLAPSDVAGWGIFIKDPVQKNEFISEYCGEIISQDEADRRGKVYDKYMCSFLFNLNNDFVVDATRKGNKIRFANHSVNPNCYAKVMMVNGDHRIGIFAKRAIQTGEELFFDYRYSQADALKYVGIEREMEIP
Ribosomal protein S6 kinase alpha-4 (Homo sapiens), sequence (O75676 whole entry, looked up): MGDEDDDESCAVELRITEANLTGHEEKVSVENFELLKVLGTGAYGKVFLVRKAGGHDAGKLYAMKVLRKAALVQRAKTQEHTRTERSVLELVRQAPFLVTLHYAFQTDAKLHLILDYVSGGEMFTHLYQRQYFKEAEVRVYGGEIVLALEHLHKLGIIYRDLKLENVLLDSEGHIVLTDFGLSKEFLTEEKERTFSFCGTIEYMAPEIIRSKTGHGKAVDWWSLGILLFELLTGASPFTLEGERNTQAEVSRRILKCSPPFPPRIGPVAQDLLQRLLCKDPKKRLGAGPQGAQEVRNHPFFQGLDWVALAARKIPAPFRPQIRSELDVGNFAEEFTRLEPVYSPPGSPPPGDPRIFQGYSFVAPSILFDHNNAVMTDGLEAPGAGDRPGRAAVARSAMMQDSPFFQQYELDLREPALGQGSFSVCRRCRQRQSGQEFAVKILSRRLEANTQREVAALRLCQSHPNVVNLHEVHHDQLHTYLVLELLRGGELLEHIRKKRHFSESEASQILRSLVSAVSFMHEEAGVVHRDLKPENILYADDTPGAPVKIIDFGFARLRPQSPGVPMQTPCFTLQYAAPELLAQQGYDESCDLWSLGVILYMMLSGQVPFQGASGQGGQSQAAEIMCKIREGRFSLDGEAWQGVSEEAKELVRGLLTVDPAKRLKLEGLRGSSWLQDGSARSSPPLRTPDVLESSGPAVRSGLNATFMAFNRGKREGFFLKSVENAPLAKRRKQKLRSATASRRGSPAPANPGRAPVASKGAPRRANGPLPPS
Atypical kinase COQ8A, mitochondrial, sequence (Q8NI60 163-647 limits assumed): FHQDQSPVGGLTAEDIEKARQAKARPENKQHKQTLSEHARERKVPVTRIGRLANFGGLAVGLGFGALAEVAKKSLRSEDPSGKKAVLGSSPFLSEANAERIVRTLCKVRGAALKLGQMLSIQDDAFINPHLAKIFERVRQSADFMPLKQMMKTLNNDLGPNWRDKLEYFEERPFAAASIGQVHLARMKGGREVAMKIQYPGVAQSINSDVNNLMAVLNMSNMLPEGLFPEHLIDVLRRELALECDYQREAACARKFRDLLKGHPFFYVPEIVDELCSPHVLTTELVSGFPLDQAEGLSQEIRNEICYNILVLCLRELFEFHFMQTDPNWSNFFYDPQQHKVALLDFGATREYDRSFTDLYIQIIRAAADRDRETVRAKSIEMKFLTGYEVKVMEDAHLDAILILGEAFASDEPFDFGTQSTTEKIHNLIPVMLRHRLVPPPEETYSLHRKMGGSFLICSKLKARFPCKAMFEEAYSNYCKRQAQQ
Serine/threonine-protein kinase Nek4 (Homo sapiens), sequence (P51957 whole entry, looked up): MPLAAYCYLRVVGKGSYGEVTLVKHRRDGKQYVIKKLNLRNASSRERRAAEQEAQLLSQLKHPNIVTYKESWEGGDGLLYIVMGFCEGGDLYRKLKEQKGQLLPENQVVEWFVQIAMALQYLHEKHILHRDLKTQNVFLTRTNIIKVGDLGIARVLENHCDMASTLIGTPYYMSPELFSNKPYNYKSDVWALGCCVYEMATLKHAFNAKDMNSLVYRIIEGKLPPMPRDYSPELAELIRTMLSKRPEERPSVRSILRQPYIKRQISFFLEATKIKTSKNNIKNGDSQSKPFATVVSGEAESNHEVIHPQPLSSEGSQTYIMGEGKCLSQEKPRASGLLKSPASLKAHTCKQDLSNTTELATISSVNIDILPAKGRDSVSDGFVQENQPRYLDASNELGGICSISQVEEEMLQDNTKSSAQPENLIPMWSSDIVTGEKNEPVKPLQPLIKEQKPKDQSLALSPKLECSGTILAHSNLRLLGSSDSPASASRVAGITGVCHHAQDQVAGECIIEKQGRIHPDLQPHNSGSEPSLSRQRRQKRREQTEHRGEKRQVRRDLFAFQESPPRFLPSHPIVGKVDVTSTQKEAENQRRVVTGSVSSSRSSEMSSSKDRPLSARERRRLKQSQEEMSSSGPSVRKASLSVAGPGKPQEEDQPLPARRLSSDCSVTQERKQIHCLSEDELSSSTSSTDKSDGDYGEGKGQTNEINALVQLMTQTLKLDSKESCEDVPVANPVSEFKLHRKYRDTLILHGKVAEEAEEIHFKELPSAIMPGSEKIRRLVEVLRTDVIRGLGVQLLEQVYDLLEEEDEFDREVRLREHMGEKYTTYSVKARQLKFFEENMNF
AP2-associated protein kinase 1, sequence (Q2M2I8 whole entry, looked up): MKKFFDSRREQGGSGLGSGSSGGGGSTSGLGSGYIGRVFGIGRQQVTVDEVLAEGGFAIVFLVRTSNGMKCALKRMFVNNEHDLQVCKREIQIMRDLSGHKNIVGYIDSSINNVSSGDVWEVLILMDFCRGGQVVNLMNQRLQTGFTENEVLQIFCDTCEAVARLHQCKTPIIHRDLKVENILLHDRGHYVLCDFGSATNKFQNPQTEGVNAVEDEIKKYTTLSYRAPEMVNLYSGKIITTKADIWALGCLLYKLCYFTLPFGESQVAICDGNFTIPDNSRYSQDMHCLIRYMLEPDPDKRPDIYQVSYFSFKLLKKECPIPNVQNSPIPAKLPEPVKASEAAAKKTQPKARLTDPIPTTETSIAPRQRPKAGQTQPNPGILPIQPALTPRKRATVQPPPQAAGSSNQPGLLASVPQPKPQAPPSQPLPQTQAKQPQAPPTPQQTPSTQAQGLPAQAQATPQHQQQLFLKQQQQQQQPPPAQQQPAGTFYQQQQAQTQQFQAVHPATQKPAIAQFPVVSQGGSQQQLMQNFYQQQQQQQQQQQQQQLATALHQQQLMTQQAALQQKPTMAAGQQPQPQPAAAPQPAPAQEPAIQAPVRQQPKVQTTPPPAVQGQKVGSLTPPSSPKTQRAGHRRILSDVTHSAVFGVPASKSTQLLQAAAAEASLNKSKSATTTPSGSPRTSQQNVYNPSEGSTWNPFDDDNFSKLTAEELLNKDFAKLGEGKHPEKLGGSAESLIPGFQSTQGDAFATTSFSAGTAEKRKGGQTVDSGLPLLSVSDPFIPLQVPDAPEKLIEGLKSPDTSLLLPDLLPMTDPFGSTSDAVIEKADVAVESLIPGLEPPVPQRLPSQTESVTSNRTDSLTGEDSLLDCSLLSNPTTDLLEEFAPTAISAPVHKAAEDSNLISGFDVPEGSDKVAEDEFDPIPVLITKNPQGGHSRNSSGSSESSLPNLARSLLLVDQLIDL

Compound: Cc1cc([C@@H](C)Nc2ccccc2C(=O)O)c2nc(N3CCOCC3)cc(=O)n2c1 [AZD-6482]
- % of control [1]: 86%

- % activity ([2]; at 1 µM): > 90%
- % activity ([2]; at 10 µM): > 80%
Compound: Cc1cc(CN)cc(C)c1-c1ncn(C)c1-c1cncn1C

- % of control [3]: 0.309%
Compound: Cn1cc(-n2cnc3c(NCc4nc5cc(Cl)c(Cl)cc5[nH]4)nc(N4CCOCC4)nc32)cn1

- % of control [4]: 100%
Compound: CCN(CC)CCCCNc1ncc2cc(-c3cc(OC)cc(OC)c3)c(NC(=O)NC(C)(C)C)nc2n1

- % of inhibition [5]: 19%
Compound: Cc1ccc(-c2ccc3c(ccc4sc5c(c43)NC[C@@H](C)NC5=O)n2)cn1

- % of control [6]: 8.9%
Compound: CCc1ccccc1C(=O)Nc1n[nH]c2c(C)c(F)c(C3C(C#N)=C(C)N(C)C(C)=C3C#N)cc12 [BAY-3827]

Compound: O[C@H]1CC[C@H](Nc2ncc3nc(Nc4c(F)cc(F)cc4F)n([C@H]4CCOC4)c3n2)CC1
- % of control [7]: 100%

Compound: C=CC(=O)Nc1ccc(C(=O)Nc2[nH]nc3c2CN(C(=O)N[C@H](CN(C)C)c2ccccc2)C3(C)C)cc1
- % of engagement [8]: 3.6%
